# Measured values as given in patent US4544658A, “1-Cyclopropyl-6-fluoro-1,4-dih ydro-4-oxo-7-(alkyl-1-piperazinyl)quinoline-3-carboxylic acids, processes for their preparation and antibacterial agents containing them” (Bayer Aktiengesellschaft, priority 1982, dated 1985).
# Columns and labels:
# Experiment in all cases: MIC, agar dilution test; Denley multipoint inoculation procedure
# Format in all cases: cell-based
# Staphylococcus Fk422 = conditions: read-out: Minimum inhibitory concentration (MIC)
# Staphylococcus 1756 = conditions: read-out: Minimum inhibitory concentration (MIC)
# E. coli Neumann = conditions: Escherichia coli, read-out: Minimum inhibitory concentration (MIC)
# Klebsiella 6179 = conditions: read-out: Minimum inhibitory concentration (MIC)
# Staphylococcus 133 = conditions: read-out: Minimum inhibitory concentration (MIC)
# Serratia 16040 = conditions: read-out: Minimum inhibitory concentration (MIC)
# Klebsiella 8085 = conditions: read-out: Minimum inhibitory concentration (MIC)
# Providencia 12052 = conditions: read-out: Minimum inhibitory concentration (MIC)
# Klebsiella 57 USA = conditions: read-out: Minimum inhibitory concentration (MIC)
MIC (Staphylococcus Fk422) [µg/mL],MIC (Staphylococcus 1756) [µg/mL],MIC (E. coli Neumann) [µg/mL],MIC (Klebsiella 6179) [µg/mL],MIC (Staphylococcus 133) [µg/mL],MIC (Serratia 16040) [µg/mL],MIC (Klebsiella 8085) [µg/mL],MIC (Providencia 12052) [µg/mL],MIC (Klebsiella 57 USA) [µg/mL],Structure (SMILES)
0.5,0.5,0.03,0.5,0.5,32,0.03,32,0.5,"CCN1[C@H](C)CN(c2cc3c(cc2F)c(=O)c(C(=O)O)cn3C2CC2)C[C@@H]1C [Example 5, 1-cyclopropyl-6-fluoro-1,4-dihydro-4-oxo-7-(4-ethyl-3,5-dimethyl-1-piperazinyl)quinoline-3-carboxylic acid hydriodide]"
0.5,0.5,0.03,0.25,0.25,16,≤ 0.015,32,0.25,"CCN1CCN(c2cc3c(cc2F)c(=O)c(C(=O)O)cn3C2CC2)CC1C.I.O (stereo not drawn) [Example 4, 1-cyclopropyl-6-fluoro-1,4-dihydro-4-oxo-7-(4-ethyl-3-methyl-1-piperazinyl)quinoline-3-carboxylic acid hydriodide monohydrate]"
0.5,0.25,≤ 0.015,0.25,0.25,16,≤ 0.015,16,0.125,"C[C@@H]1CN(c2cc3c(cc2F)c(=O)c(C(=O)O)cn3C2CC2)C[C@H](C)N1 [Example 3, 1-cyclopropyl-6-fluoro-1,4-dihydro-4-oxo-7-(3,5-dimethyl-1-piperazinyl)quinoline-3-carboxylic acid]"
0.25,0.25,≤ 0.015,0.125,0.25,4,≤ 0.015,16,0.03,"CC1CN(c2cc3c(cc2F)c(=O)c(C(=O)O)cn3C2CC2)CCN1 (stereo not drawn) [Example 1, 1-cyclopropyl-6-fluoro-1,4-dihydro-4-oxo-7-(3-methyl-1-piperazinyl)quinoline-3-carboxylicacid semihydrate]"
